Data set [1] has as its system MYCN 3′UTR. Kind of data set: luciferase reporter screening and counter-screening in CHP134-MYCN and CHP134-CTRL stable clones. The data set is classed as cell-based, human. To be noted: 24 h; for dependence of luciferase reporter upregulation on MYCN 3′UTR (counter-screening): 2 uM, CHP134-MYCN#3 versus CHP134-CTRL#19. How it is done:
Reporter constructs containing the firefly luciferase reporter gene under the control of the CMV viral promoter and followed by either the whole MYCN 3′UTR (pGL4.26-MYCN3UTR) or the only SV40 poly(A) region (pGL4.26-CTRL) as a control were produced as disclosed above.
The CHP134 neuroblastoma cell line was used to generate stable transfection clones as disclosed in Example 3.
The screening was carried out in the CHP134-MYCN#3 stable clone with the Spectrum Collection small molecule library (MicroSource Discovery) composed of 2000 compounds stored at 10 mM in DMSO: 800 drugs that have been introduced in the US, 200 drugs that are limited in use to Europe and Japan, 580 natural products, 420 compounds with reported biological activities.
The assay was run in triplicates in 96-well plates. CHP134-MYCN stable clone cells were trypsinized, harvested and resuspended in culture medium. Tecan Multichannel arm (MCA96) of a Tecan EVO 200 robot (Tecan) was used to add 150 uL containing 15000 cells to the 96-well white CulturePlate-96 (Perkin Elmer).
After adhesion, the 10 mM compounds were diluted to 75 uM in PBS and immediately pipetted into the 96 wells in order to have a final concentration of 2 uM in the cells. Baseline controls were obtained treating the first column wells with PBS+DMSO at the same final concentration of the samples.
Luciferase activity was assessed using OneGlow Luciferase assay (Promega) according to the manufacturer's method, after 24 h of incubation at 37° with 5% CO2 and 100% relative humidity. Luminescence signal was read on a Tecan F200 multiplate reader (Tecan) integrated with the robot.
The majority of the hits (Table 1) were then checked for reproducibility and cytotoxic activity, the most interesting compounds were also tested for dose-responsiveness. The same hits were subsequently subjected to counter-screening with the stable clone CHP134-CTRL#19 expressing the control pGL4.26-CTRL plasmid, to segregate plasmid promoter-dependent transcriptional control effects.
To verify the specificity of the CPX effect for the MYCN 3′UTR and its clone-independency, the treatment was repeated with the CHP134-MYCN#3 clone and the CHP134-CTRL#19 clones and with two independent others, again stably transfected with the pGL4.26-MYCN3UTR and the pGL4.26-CTRL plasmids (respectively, CHP134-MYCN#1 and the CHP134-CTRL#17 clones).
Treatment with CPX 2 uM and measurement of luciferase activity with the OneGlow luciferase assay after 24 h provided a confirmation of the screening results (FIG. 3).
In general terms: In a reporter assay the amount or activity of a reporter protein is the signal.

Data set [2] relates to CHP134-MYCN#3 neuroblastoma cell clone. Kind of data set: WST-1 cell cytotoxicity assay with selected hits at 2 uM. The class given is cell-based, human. To be noted: MYCN-amplified neuroblastoma cells, 24 or 48 hours. As for the experimental part:
a) Cell cytotoxicity was performed by WST1 assay (Roche) following the manufacturer's instruction: 15000 cells were plated in each well of 96-well transparent Spectra Plate (Perkin Elmer) in 150 ul of complete media.
After adhesion, cells were treated with the selected drugs (Table 1) at 2 uM concentration and incubated at 37° with 5% CO2 and 100% relative humidity for 24 or 48 hours. At the defined endpoint, 15 uL of WST1 reagent were added and after 4 hours incubation at 37° with 5% CO2 and 100% relative humidity, plates were read for absorbance at 450 nm in a Tecan F200 multiplate reader (Tecan).
Different measurements were needed in order to calculate the percentage growth: time zero (Tz: that represent a measurement of the cell population at the time of drug addition), control growth (C: measures the growth of the cells treated with vehicle only after 24 or 48 hours) and test growth (Ti: that represent a measurement of the cell population after 24 or 48 hours). Percentage growth is calculated as:
[(Ti−Tz)/(C−Tz)]×100 eq. (2)
for concentrations for which Ti>=Tz;
for concentrations for which Ti<Tz.

Data set [3] deals with CHP134 cells. Kind of data set: Annexin V-FITC / PI apoptosis assay by flow cytometry. The class given is cell-based, human. To be noted: CHP134, 24 and 48 hr, different concentrations. How it is done:
c) Apoptosis assay was performed by flow cytometry. CHP134 cells were seeded 10 cm-dishes at the concentration 1×10^6 cells under standard culture conditions. In three days cells were treated with CPX at different concentration for 24 and 48 hr. The cells were then harvested, washed with cold PBS and processed for apoptosis assay using the Annexin V-FITC Apoptosis Detection Kit I (BD Biosciences) by following the instructions of the manufacturer. Briefly, cells were stained with FITC-Annexin V and PI (Propidium Iodide) in order to allow for the identification of death cells (FITC and PI positive), viable cells (FITC and PI negative) and pre-apoptotic cells (FITC positive and PI negative). Flow cytometric analysis was performed with the BD FACS Canto (BD Biosciences).
The results are shown, in FIG. 6. Numbers indicate the percentage of apoptotic/dead cells (P1) and pre-apoptotic cells (P2) respectively.

Data set [4] relates to MYCN protein. Kind of data set: immunofluorescence analysis of MYCN expression. The class given is cell-based, human. To be noted: CHP134 cells, 24 h, different concentration of CPX. How it is done: To verify if the CPX enhancement effects on luciferase activity was accompanied by an increase in MYCN protein levels, an immunofluorescence analysis were performed on CHP134 cells plated in 96-well imaging plates (BD) and treated after adhesion for 24 h at different concentration of CPX. Cells were fixed by paraformaldehyde (PFA) 3.7%, permeabilized with 0.1% Triton X100, incubated with anti-MYCN mouse monoclonal antibody (ab16898, ABCAM) and stained with Alexafluor 488 rabbit anti-mouse secondary antibody.
Images were acquired by Operetta (Perkin Elmer) high content system and analyzed by the Harmony software.
Results represent fluorescence intensity in the nuclear area previously identified by DAPI staining.

For data set [5] the following is noted: rat; cited from earlier work.
For data set [6] the following is noted: humans; deferiprone: iron overload treatment in transfused thalassemia patients; doxorubicin: high dose infusional in tumor bearing patients; cited from earlier work.
Data set [7] relates to CHP134 and SiMa neuroblastoma cell lines. Kind of data set: WST-1 dose-response cytotoxicity of ciclopirox olamine and piroctone olamine. The data set is classed as cell-based, human. To be noted: 0.33-100 μM, 48 hours. As for the experimental part: After adhesion, cells were treated with different concentration of CPX ranging from 66 nM to 66 uM concentration and incubated at 37° with 5% CO2 and 100% relative humidity for 48 hours. At the defined endpoint, 15 ul of WST1 reagent were added and after 4 hours incubation at 37° with 5% CO2 and 100% relative humidity, plates were read for absorbance at 450 nm in a Tecan F200 multiplate reader (Tecan).
Different measurements were needed in order to calculate the percentage growth: time zero (Tz: that represent a measurement of the cell population at the time of drug addition), control growth (C: measures the growth of the cells treated with vehicle only after 48 hours) and test growth (Ti: that represent a measurement of the cell population after 48 hours treatment with CPX).
Percentage growth is calculated as above by means of eq.s (2) and (3).
In order to understand if compounds of similar molecular structure to that of CPX could be also effective in inducing a cytotoxic activity, we treated two neuroblastoma cell lines, CHP134 and SiMa, with increasing concentrations of both compounds (0.33-1-3.3-10-33-100 μM), and we measured cytotoxicity after 48 hours as detailed before.
In general terms: Tetrazolium assays rely on reduction of a dye to a coloured formazan, in cell work by metabolically active cells.

Structures can show the parent of a compound that is named as a salt.

As to `Cc1cc(C2CCCCC2)n(O)c(=O)c1` [ciclopirox olamine, CICLOPIROX OLAMINE], the “dependence of luciferase reporter upregulation on MYCN 3′UTR (counter-screening)” value (from here on “dependence”) in data set [1] is listed as “truly dependent on MYCN 3′UTR”. In addition, the luciferase expression entry in data set [1] (CPX 2 uM, clones CHP134-MYCN#3, CHP134-MYCN#1, CHP134-CTRL#19, CHP134-CTRL#17) was “clone-independent, MYCN 3′UTR specific effect of increased luciferase expression”. For the same compound, the cytotoxicity result in data set [2] was “efficient cytotoxicity”. In addition, in data set [3], the “effect on cell viability: percentage of apoptotic/dead (P1) and pre-apoptotic (P2) cells” value is listed as “increased percentage of apoptotic/dead cells”. Moreover, the “MYCN nuclear immunostaining (fluorescence intensity in the nuclear area)” value in data set [4] is listed as “dose-dependent increase”. In addition, the “acute lethal dose 50 (LD50)” value in data set [5] was 2350 mg/kg.

`COc1cccc2c1C(=O)c1c(O)c3c(c(O)c1C2=O)C[C@@](O)(C(C)=O)C[C@@H]3O[C@H]1C[C@H](N)[C@H](O)[C@H](C)O1` [daunorubicin, DAUNORUBICIN]: in data set [1], the “dependence” value is “truly dependent on MYCN 3′UTR”. Further, in data set [2], the cytotoxicity result is on record as “efficient cytotoxicity”.

Take `Cc1c(O)c(=O)ccn1C` [deferiprone, 3-hydroxy-1,2-dimethylpyridin-4-one]: the “acute lethal dose 50 (LD50)” value in data set [5] is recorded as 2000 mg/kg. Moreover, the plasma concentration in data set [6] is at least 250 µM.

Turning to `COc1cccc2c1C(=O)c1c(O)c3c(c(O)c1C2=O)C[C@@](O)(C(=O)CO)C[C@@H]3O[C@H]1C[C@H](N)[C@H](O)[C@H](C)O1` [doxorubicin, DOXORUBICIN], in data set [1], the “dependence” value is recorded as “truly dependent on MYCN 3′UTR”. Moreover, the cytotoxicity entry in data set [2] is recorded as “efficient cytotoxicity”. Moreover, the “acute lethal dose 50 (LD50)” value in data set [5] is 10.5 mg/kg. Moreover, the plasma concentration in data set [6] is 0.1 µM.

Take `COc1cccc2c1C(=O)c1c(O)c3c(c(O)c1C2=O)C[C@@](O)(C(=O)CO)C[C@@H]3O[C@H]1C[C@H](N)[C@@H](O)[C@H](C)O1` [epirubicin, EPIRUBICIN HYDROCHLORIDE]: in data set [2], the cytotoxicity entry is “efficient cytotoxicity”.

`Cc1cc(CC(C)CC(C)(C)C)n(O)c(=O)c1.NCCO` (stereo not shown) [piroctone olamine]: in data set [7], the “cytotoxic activity compared with CPX” value was “even stronger activity”.

The values are drawn from patent publication US20130203822A1, “COMPOUNDS FOR TREATMENT OF TUMORS BEARING D[…] ONCOPROTEINS” (priority 2010, published 2013).
